From patent publication US9452185B2, “Mesenchymal stem cells and supports for tissue regeneration, repair and reconstruction” (THE TEXAS A&M UNIVERSITY SYSTEM, priority 2009, dated 2016)

Test system: calvarial defects
Assay: Histology of 50-day calvaria (H&E, tetracycline tracing, blood vessels)
Format: in vivo, nude mice
Method: Histochemistry and immunocytochemistry. For β-catenin localization studies, hMSCs were stained with a cy-3 conjugated anti-β-catenin antibody and nuclei were counterstained with pico-green dye. Specimens were processed as paraffin blocks and 8 longitudinal sections were prepared, deparaffinized and rehydrated, then stained with hematoxylin and eosin. For immunocytochemistry, sections were probed with an anti-human β-2-microglobulin antibody. An upright fluorescent microscope fitted with a high performance camera (and image analysis software was employed for imaging. Tetracycline tracing of in vivo calcium deposition. The tetracycline was imaged using an upright fluorescent microscope fitted with a high performance camera and analyzed using software. Embedding, sectioning and mounting was carried out on non-decalcified material. Semi-quantitative blood vessel measurements. Calvaria were fixed, decalcified and sectioned in paraffin and stained with hematoxylin and eosin as described. Using NIS-Elements image analysis software, the surface area of blood vessels in a defined ROI was calculated and totaled. The values were expressed as the mean of total blood vessel area from 3 animals per group. […] Using NIS-Elements image analysis software, the surface area of blood vessels in the 2D ROI was calculated for each section and totaled. […]

O=C(Nc1ccccc1)c1cc([N+](=O)[O-])ccc1Cl [GW9662, 2-chloro-5-nitro-N-phenyl-benzamide] was tested, and the “new bone formation, histology” value (day 50) was “new bone formation was detected” and the “ability of MSCs to initiate angiogenesis at trauma sites” value (day 50, blood vessels) was “had not affected”.
